Where a name gives a salt, the structure may show the parent alone.

For one data set, the target named is D2-like dopamine receptors (Rattus norvegicus, UniProt P61169). The data set can be described thus: Inhibition of tritiated (S)-sulpiride binding to D2-like dopamine receptors in rat striatal tissue. Particulars: ligand tritiated (S)-sulpiride 1 nM, 4° C., 40 minutes. As for the experimental part: Striatal tissue from the brains of male Charles River CD rats weighing between 140-250 g were homogenised in ice-cold 50 mM Tris-HCl buffer (pH 7.7 when measured at 25° C.) and centrifuged at 40,000 g for 10 minutes. The pellet was resuspended in Tris salts buffer (50 mM Tris-HCl buffer containing 120 mM NaCl, 5 mM KCl, 2 mM CaCl2 and 1 mM MgCl2 with the addition of 6 mM ascorbic acid; pH 7.7 when measured at 25° C.), and again centrifuged at 40,000 g for 10 minutes. The final pellet was stored at −80° C. Before each test the pellet was resuspended in Tris salts buffer (equivalent to 2 mg wet weight of tissue/ml). […]
D2-like dopamine receptors, sequence (P61169 whole entry): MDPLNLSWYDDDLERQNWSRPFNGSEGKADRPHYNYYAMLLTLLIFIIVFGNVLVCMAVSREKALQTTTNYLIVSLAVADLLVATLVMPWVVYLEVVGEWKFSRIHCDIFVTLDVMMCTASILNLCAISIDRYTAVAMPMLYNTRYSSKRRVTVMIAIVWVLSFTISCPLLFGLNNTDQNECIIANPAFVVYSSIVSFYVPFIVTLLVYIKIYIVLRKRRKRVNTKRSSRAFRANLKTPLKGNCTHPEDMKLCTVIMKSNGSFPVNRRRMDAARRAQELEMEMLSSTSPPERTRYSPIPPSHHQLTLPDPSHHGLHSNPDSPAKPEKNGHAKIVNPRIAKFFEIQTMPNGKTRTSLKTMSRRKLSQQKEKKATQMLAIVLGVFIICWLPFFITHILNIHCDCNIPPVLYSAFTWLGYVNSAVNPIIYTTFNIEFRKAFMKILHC
The filters were washed with ice-cold Tris-HCl buffer and dried. The filters were punched out in to vials, scintillation fluid added and were left for about 20 hours before being counted by scintillation spectrophotometry. The percentage displacement of specific binding of the tritiated ligand was calculated for the single concentration (10^−6M) of test compound. […] The inhibition coefficient Ki then calculated using the formula [formula] […]
The term Ki denotes a dissociation constant, usually derived from enzyme kinetics or from competition with a known ligand. Low readings indicate a stronger hold on the target, high ones a looser hold on the target. `CCOC(=O)c1cc2c3c(ccc2[nH]1)OC[C@H](CNCC1CCN(c2ccccc2OC)CC1)O3` [Example 3, ethyl (S)-2,3-dihydro-2-(N-{[1-(2-methoxyphenyl)piperid-4-yl]methyl}aminomethyl)-7H-1,4-dioxino[2,3-e]indole-8-carboxylate 0.05 dichloromethane solvate] displayed a Ki of 106 nM.

For the next data set, the target named is T1, 5-HT1A receptors (Rattus norvegicus, UniProt P19327).
T1 construct: Hippocampal tissue from the brains of male Charles River CD rats; from tissue; host or cells: rat hippocampus membrane homogenate
T1 sequence (P19327 1-422): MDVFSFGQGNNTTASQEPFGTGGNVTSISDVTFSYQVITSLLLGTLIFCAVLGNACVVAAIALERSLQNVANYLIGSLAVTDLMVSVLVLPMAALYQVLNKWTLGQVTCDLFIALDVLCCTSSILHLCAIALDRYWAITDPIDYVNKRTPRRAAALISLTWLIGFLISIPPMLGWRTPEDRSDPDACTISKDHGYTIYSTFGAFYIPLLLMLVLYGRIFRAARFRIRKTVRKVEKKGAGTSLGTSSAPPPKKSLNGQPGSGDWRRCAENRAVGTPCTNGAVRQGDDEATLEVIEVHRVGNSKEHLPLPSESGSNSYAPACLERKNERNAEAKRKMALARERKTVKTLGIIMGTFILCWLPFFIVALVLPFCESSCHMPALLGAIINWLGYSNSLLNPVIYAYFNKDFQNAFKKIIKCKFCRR
In words: Inhibition of [3H]8-OH-DPAT binding to 5-HT1A receptors in rat hippocampal tissue. To be noted: ligand [3H]8-OH-DPAT 2 nM, 25° C., 30 minutes. The method, then: Hippocampal tissue from the brains of male Charles River CD rats weighing between 150-250 g were homogenised in ice-cold 50 mM Tris-HCl buffer (pH 7.7) when measured at 25° C., 1:40 w/v) and centrifuged at 30,000 g at 4° C. for 10 minutes. The pellet was rehomogenised in the same buffer, incubated at 37° C. for 10 minutes and centrifuged at 30,000 g at 4° C. for 10 minutes. The final pellet was resuspended in 50 mM Tris-HCl buffer (pH 7.7) containing 4 mM CaCl2, 0.1% L-ascorbic acid and 10 μM pargyline hydrochloride (equivalent to 6.25 mg wet weight of tissue/ml) and used immediately in the binding assay. Aliquots (400 μl; equivalent to 2.5 mg wet weight of tissue/tube) of this suspension were added to tubes containing the ligand (50 μl; 2 nM) and distilled water (50 μl; total binding) or 5-HT (50 μl; 10 μM; non-specific binding) or test compound (50 μl; at a single concentration of 10^−8 M or at 10 concentrations ranging from 10^−11−10^−3 M). The ligand was [^3H]8-hydroxy-2-(dipropylamino)tetralin ([^3H]8-OH-DPAT) and the mixture was incubated at 25° C. for 30 minutes before the incubation was terminated by rapid filtration.
The filters were washed with ice-cold Tris-HCl buffer and dried. The filters were punched out into vials, scintillation fluid added and radioactivity determined by liquid scintillation counting. The percentage displacement of specific binding of the tritiated ligand was calculated for the single concentration (10^−6 M) of test compound. Displacement curves were then produced for those compounds which displaced ≧50% of specific binding of the tritiated ligand at 10^−6 M using a range of concentrations of the compound. The concentration which gave 50% inhibition of specific binding (IC50) was obtained from the curve. The inhibition coefficient Ki was then calculated using the formula [formula]
in which [ligand] is the concentration of the tritiated ligand used and KD is the equilibrium dissociation constant for the ligand.
As for `COc1ccccc1N1CCC(CNC[C@H]2COc3ccc4scc(Cl)c4c3O2)CC1` [Example 1, (S)-N-(9-chloro-2,3-dihydrothieno[3,2-f]-1,4-benzodioxin-2-ylmethyl)-1-[1-(2-methoxyphenyl)piperid-4-yl]methylamine 0.5 fumarate], affinity was put at a Ki of 36 nM. On the same count and under the same terms, under `COc1ccccc1N1CCC(CNC[C@H]2COc3ccc4sccc4c3O2)CC1.O=C(O)/C=C/C(=O)O` [Example 2, (S)-N-(2,3-dihydrothieno[3,2-f]-1,4-benzodioxin-2-ylmethyl)-1-[1-(2-methoxyphenyl)piperid-4-yl]methylamine monofumarate] stands 9.7 nM; under `COc1ccccc1N1CCC(CNC[C@H]2COc3ccc4[nH]ncc4c3O2)CC1` [Example 5, (S)-N-(2,3-dihydro-7H-1,4-dioxino[2,3-e]indazol-2-ylmethyl)-1-[1-(2-methoxyphenyl)piperid-4-yl]methylamine], 1.2 nM; under `COc1ccccc1N1CCC(CNC[C@H]2COc3ccc4occc4c3O2)CC1` [Example 6, (S)-N-(2,3-dihydrofuro[3,2-f]-1,4-benzodioxin-2-ylmethyl)-1-[1-(2-methoxyphenyl)piperid-4-yl]methylamine monofumarate monohydrate], 1.7 nM. Take `Oc1ccccc1N1CCC(CNC[C@H]2COc3ccc4occc4c3O2)CC1` [Example 7, (S)-2-{4-[(2,3-Dihydrofuro[3,2-f]-1,4-benzodioxin-2-ylmethyl)-aminomethyl]piperidino}phenol monofumarate 1.1 hydrate, 0.25 ethanol solvate]: the Ki turned out to be 3.6 nM. This Ki lies about 2.1-fold higher than the previous one. `COc1ccccc1N1CCC(CNC[C@H]2COc3ccc4c(c3O2)OCO4)CC1` [Example 8, (S)-N-(7,8-methylenedioxy-2,3-dihydro-1,4-benzodioxin-2-ylmethyl)-1-[1-(2-methoxyphenyl)piperid-4-yl]methyl-amine monocitrate] displayed a Ki of 1.1 nM.

Still in this data set, the particulars now being: single concentration 10^−6 M of test compound, ligand [3H]8-OH-DPAT.
As for `CCOC(=O)c1cc2c3c(ccc2[nH]1)OC[C@H](CNCC1CCN(c2ccccc2OC)CC1)O3` [Example 3, ethyl (S)-2,3-dihydro-2-(N-{[1-(2-methoxyphenyl)piperid-4-yl]methyl}aminomethyl)-7H-1,4-dioxino[2,3-e]indole-8-carboxylate 0.05 dichloromethane solvate], the “% displacement at 10^−6 M, 5-HT1A” value is given as 99%.

On to `COc1ccccc1N1CCC(CNC[C@H]2COc3ccc4[nH]ccc4c3O2)CC1` [Example 4, (S)-N-(2,3-dihydro-7H-1,4-dioxino[2,3-e]indol-2-ylmethyl)-1-[1-(2-methoxyphenyl)piperid-4-yl]methylamine 0.1 hydrate], for which the “% displacement at 10^−6 M, 5-HT1A” value stood at 99%.

Tested on in another data set: not given
Test: not given
Settings: not given
As usually defined, the melting point is the temperature, or range, at which the solid turns liquid. In the case of `Oc1ccccc1N1CCC(CNC[C@H]2COc3ccc4occc4c3O2)CC1` (as salt: fumarate) (hydrate or solvate) [Example 7, (S)-2-{4-[(2,3-Dihydrofuro[3,2-f]-1,4-benzodioxin-2-ylmethyl)-aminomethyl]piperidino}phenol monofumarate 1.1 hydrate, 0.25 ethanol solvate], the melting point lay within 88 to 89 °C.

In turn, `COc1ccccc1N1CCC(CNC[C@H]2COc3ccc4scc(Cl)c4c3O2)CC1` (as salt: fumarate) [Example 1, (S)-N-(9-chloro-2,3-dihydrothieno[3,2-f]-1,4-benzodioxin-2-ylmethyl)-1-[1-(2-methoxyphenyl)piperid-4-yl]methylamine 0.5 fumarate] came in with a melting point of 171 to 172 °C. The compound `COc1ccccc1N1CCC(CNC[C@H]2COc3ccc4[nH]ccc4c3O2)CC1` (hydrate or solvate) [Example 4, (S)-N-(2,3-dihydro-7H-1,4-dioxino[2,3-e]indol-2-ylmethyl)-1-[1-(2-methoxyphenyl)piperid-4-yl]methylamine 0.1 hydrate] yielded a melting point of 162 to 163 °C. In the case of `COc1ccccc1N1CCC(CNC[C@H]2COc3ccc4occc4c3O2)CC1.O.O=C(O)/C=C/C(=O)O` (hydrate or solvate) [Example 6, (S)-N-(2,3-dihydrofuro[3,2-f]-1,4-benzodioxin-2-ylmethyl)-1-[1-(2-methoxyphenyl)piperid-4-yl]methylamine monofumarate monohydrate], the melting point fell in the range of 95 to 96 °C.

Take `COc1ccccc1N1CCC(CNC[C@H]2COc3ccc4sccc4c3O2)CC1.O=C(O)/C=C/C(=O)O` [Example 2, (S)-N-(2,3-dihydrothieno[3,2-f]-1,4-benzodioxin-2-ylmethyl)-1-[1-(2-methoxyphenyl)piperid-4-yl]methylamine monofumarate]: the melting point was 180 to 182 °C.

Values taken from patent US6353002B2, “Therapeutic agents” (Knoll Aktiengesellschaft, priority 1997, dated 2002).
